The text below walks through data of patent US20130241815A1, “INK CONTAINING ANTHRAQUINONE BASED DYE, DYE USED IN THE INK, AND DISPLAY” (MITSUBISHI CHEMICAL CORPORATION, priority 2010, published 2013).

Common to all, as to format: physicochemical
The nature of data set [1]: Preparation of ink and evaluation of solubility in low polar solvents (saturated solution, absorption maximum, εC). Particulars: for Solubility: saturated solution, room temperature. As to the method: Each of Illustrative Compounds 1 to 4 and Comparative Compounds 1, 2 and 4 was dissolved in each of the solvents of n-decane, tetradecane, ISOPAR M, and ISOPAR G, thereby preparing an ink. On that occasion, the solubility of each of the compounds in each of the solvents was measured in the following manner.
Each of the compounds (dyes) was added to each of the solvents until a dissolution residue was generated, and the contents were ultrasonically treated at a water temperature of 30° C. for 30 minutes. After standing at room temperature for 12 hours, the resultant was subjected to centrifugal filtration with a 0.1 μm filter by using an ultrasmall-sized centrifuge (centrifugal force: 5,200×g). Each of the obtained saturated solutions was diluted with an appropriate concentration, a solubility of each of the dyes was calculated from a relation with a previously measured absorption coefficient, and a product ∈C (cm^−1) of a molar absorption coefficient ∈ (L mole^−1 cm^−1) at the absorption maximum wavelength and a concentration C (mole L^−1) of the saturated solution was determined.

Test in data set [2]: as above
As to conditions: for Absorption maximum wavelength: Decalin solution; for Solubility: Decalin, saturated solution, room temperature.

Data set [3] in a line: Light resistance test (residual rate of dye after 2 h irradiation, 400 W high pressure mercury vapor lamp). Particulars: 1 mg dye in 200 mL, 10 to 30° C. On the procedure: The light resistance of each of the compounds (dyes) was measured in the following manner.
1 mg of each of the compounds (dyes) was dissolved in 200 mL of each of the low polar solvents within a container, thereby preparing an ink. This ink was irradiated with light for 2 hours by using a photoreactor UVL-400HA (400 W high pressure mercury vapor lamp), manufactured by Riko Kagaku Sangyo K.K. During that interval, the container was cooled with a coolant, thereby keeping an internal temperature at from 10 to 30° C. A residual rate of the dye was determined by calculation according to the following expression, thereby evaluating the light resistance.
Residual rate=(Absorbance at the maximum absorption wavelength after irradiation)/(Absorbance at the maximum absorption wavelength before irradiation)

For the molecule `CNc1ccc(Nc2ccc(C)cc2)c2c1C(=O)c1ccccc1C2=O` [Comparative Compound 1, C.I. Solvent Blue 11, reference compound], the εC is 26 cm⁻¹ in data set [1] (Decalin solution), 7 cm⁻¹ in data set [1] (ISOPAR G solution), 7 cm⁻¹ in data set [1] (ISOPAR M solution) and 12 cm⁻¹ in data set [1] (Tetradecane solution). The Absorption maximum wavelength is given as 594 nm in data set [1] (ISOPAR G solution); 594 nm in data set [1] (ISOPAR M solution); 595 nm in data set [1] (Tetradecane solution); “Unmeasurable” in data set [1] (n-Decane solution); 636 nm in data set [2]. Besides, the Solubility in data set [1] (ISOPAR G) is recorded as 0.02 % by mass; in data set [1] (ISOPAR M), 0.02 % by mass; in data set [1] (Tetradecane) it was 0.04 % by mass; in data set [1] (n-Decane), “Low”; in data set [2] it was 0.07 % by mass. In addition, in data set [1] (n-Decane solution), the “εC (molar absorption coefficient at absorption maximum x concentration of saturated solution)” value is reported as “Low”.
`CC(C)CNc1ccc(Nc2ccccc2)c2c1C(=O)c1ccccc1C2=O` [Comparative Compound 2, reference compound]: in data set [1] (n-Decane solution), the Absorption maximum wavelength was 614 nm and the “εC (molar absorption coefficient at absorption maximum x concentration of saturated solution)” value amounted to 200 cm⁻¹. The molecule further came in with a Solubility in data set [1] (n-Decane) of 0.7 % by mass.
In the case of `CCCCN(CCCC)c1ccc(N=Nc2nc(C#N)c(C#N)n2CC#N)c(NC(C)=O)c1` [Comparative Compound 3, reference compound], the “Residual rate after light resistance test” value (“Residual rate” below) in data set [3] (n-Decane) is listed as 45%.
In the case of `C=CCn1c(N=Nc2ccc(N(CCC)CCC)cc2NC(C)=O)nc(C#N)c1C#N` [Comparative Compound 4, reference compound], the εC is 7 cm⁻¹ in data set [1] (Decalin solution), “Low” in data set [1] (ISOPAR G solution), “Low” in data set [1] (ISOPAR M solution) and “Low” in data set [1] (Tetradecane solution). Further, the Absorption maximum wavelength result in data set [1] (ISOPAR G solution) was “Unmeasurable”; in data set [1] (ISOPAR M solution), “Unmeasurable”; in data set [1] (Tetradecane solution), “Unmeasurable”; in data set [1] (n-Decane solution), “Unmeasurable”; in data set [2], 520 nm. For the same molecule, the Solubility result in data set [1] (ISOPAR G) was “Low”; in data set [1] (ISOPAR M), “Low”; in data set [1] (Tetradecane) it was “Low”; in data set [1] (n-Decane) it was “Low”; in data set [2] it was 0.01 % by mass. Moreover, in data set [1] (n-Decane solution), the “εC (molar absorption coefficient at absorption maximum x concentration of saturated solution)” value was “Low”.
In the case of `CCCCC(CC)CNc1ccc(NCC(CC)CCCC)c2c1C(=O)c1ccccc1C2=O` (stereo not drawn) [Illustrative Compound 1], the εC in data set [1] (Decalin solution) was 3400 cm⁻¹; in data set [1] (ISOPAR G solution), 1900 cm⁻¹; in data set [1] (ISOPAR M solution), 1200 cm⁻¹; in data set [1] (Tetradecane solution) it was 1600 cm⁻¹. Also, the Absorption maximum wavelength in data set [1] (ISOPAR G solution) was 649 nm; in data set [1] (ISOPAR M solution), 650 nm; in data set [1] (Tetradecane solution) it was 651 nm; in data set [1] (n-Decane solution), 650 nm; in data set [2], 645 nm. The Solubility in data set [1] (ISOPAR G) came to 7.3 % by mass; in data set [1] (ISOPAR M), 4.2 % by mass; in data set [1] (Tetradecane), 5.7 % by mass; in data set [1] (n-Decane) it was 6.6 % by mass; in data set [2], 9.98 % by mass. The “εC (molar absorption coefficient at absorption maximum x concentration of saturated solution)” value in data set [1] (n-Decane solution) was found to be 2000 cm⁻¹.
Regarding `CCCCC(CC)CNc1ccc(NCC(CC)CCCC)c2c1C(=O)c1ccc(C(=O)OCC)cc1C2=O` (stereo not drawn) [Illustrative Compound 2], in data set [1] (n-Decane solution), the Absorption maximum wavelength is 668 nm and the “εC (molar absorption coefficient at absorption maximum x concentration of saturated solution)” value stood at 1000 cm⁻¹. The Solubility in data set [1] (n-Decane) was 4.7 % by mass.
`CCCCC(CC)CNc1ccc(NCC(CC)CCCC)c2c1C(=O)c1ccc(C(=O)OCC(C)C)cc1C2=O` (stereo not drawn) [Illustrative Compound 3]: the “Residual rate” value in data set [3] (ISOPAR G) was 88%; in data set [3] (ISOPAR M) it was 77%; in data set [3] (Tetradecane), 94%; in data set [3] (n-Decane), 78%. Further, the εC in data set [1] (Decalin solution) was 3100 cm⁻¹; in data set [1] (ISOPAR G solution), 2700 cm⁻¹; in data set [1] (ISOPAR M solution), 1400 cm⁻¹; in data set [1] (Tetradecane solution), 1200 cm⁻¹. In addition, the Absorption maximum wavelength is 667 nm in data set [1] (ISOPAR G solution); 668 nm in data set [1] (ISOPAR M solution); 668 nm in data set [1] (Tetradecane solution); 668 nm in data set [1] (n-Decane solution); 662 nm in data set [2]. Moreover, the Solubility in data set [1] (ISOPAR G) amounted to 10.8 % by mass; in data set [1] (ISOPAR M) it was 5.1 % by mass; in data set [1] (Tetradecane) it was 4.7 % by mass; in data set [1] (n-Decane), 7.5 % by mass; in data set [2], 10.0 % by mass. The “εC (molar absorption coefficient at absorption maximum x concentration of saturated solution)” value in data set [1] (n-Decane solution) was 1900 cm⁻¹.
For the molecule `CCCCC(CC)CNc1ccc(NCC(CC)CCCC)c2c1C(=O)c1ccc(C(=O)OCCC)cc1C2=O` (stereo not drawn) [Illustrative Compound 4], the “Residual rate” value in data set [3] (ISOPAR G) is given as 95%; in data set [3] (ISOPAR M), 99%; in data set [3] (Tetradecane), 93%; in data set [3] (n-Decane), 97%. The Absorption maximum wavelength came out at 666 nm in data set [1] (ISOPAR G solution), 667 nm in data set [1] (ISOPAR M solution), 668 nm in data set [1] (Tetradecane solution) and 668 nm in data set [1] (n-Decane solution). Also, the εC in data set [1] (ISOPAR G solution) turned out to be 1400 cm⁻¹; in data set [1] (ISOPAR M solution), 1200 cm⁻¹; in data set [1] (Tetradecane solution), 1300 cm⁻¹. Further, the Solubility came to 5.5 % by mass in data set [1] (ISOPAR G), 4.5 % by mass in data set [1] (ISOPAR M), 4.9 % by mass in data set [1] (Tetradecane) and 9.5 % by mass in data set [1] (n-Decane). In data set [1] (n-Decane solution), the “εC (molar absorption coefficient at absorption maximum x concentration of saturated solution)” value worked out at 2400 cm⁻¹.
